Consider 13 compounds from US20260070899A1, “N-(2-(4-CYANOTHIAZOLIDIN-3-YL)-2-OXOETHYL)-QUINOLINE-4-CARBOXAMIDES” (AstraZeneca AB, priority 2022, published 2026).

The target of the assay is T1, Prolyl endopeptidase, Prolyl Oligopeptidase (hPREP) (Homo sapiens, UniProt P48147).
T1 sequence (P48147 1-710): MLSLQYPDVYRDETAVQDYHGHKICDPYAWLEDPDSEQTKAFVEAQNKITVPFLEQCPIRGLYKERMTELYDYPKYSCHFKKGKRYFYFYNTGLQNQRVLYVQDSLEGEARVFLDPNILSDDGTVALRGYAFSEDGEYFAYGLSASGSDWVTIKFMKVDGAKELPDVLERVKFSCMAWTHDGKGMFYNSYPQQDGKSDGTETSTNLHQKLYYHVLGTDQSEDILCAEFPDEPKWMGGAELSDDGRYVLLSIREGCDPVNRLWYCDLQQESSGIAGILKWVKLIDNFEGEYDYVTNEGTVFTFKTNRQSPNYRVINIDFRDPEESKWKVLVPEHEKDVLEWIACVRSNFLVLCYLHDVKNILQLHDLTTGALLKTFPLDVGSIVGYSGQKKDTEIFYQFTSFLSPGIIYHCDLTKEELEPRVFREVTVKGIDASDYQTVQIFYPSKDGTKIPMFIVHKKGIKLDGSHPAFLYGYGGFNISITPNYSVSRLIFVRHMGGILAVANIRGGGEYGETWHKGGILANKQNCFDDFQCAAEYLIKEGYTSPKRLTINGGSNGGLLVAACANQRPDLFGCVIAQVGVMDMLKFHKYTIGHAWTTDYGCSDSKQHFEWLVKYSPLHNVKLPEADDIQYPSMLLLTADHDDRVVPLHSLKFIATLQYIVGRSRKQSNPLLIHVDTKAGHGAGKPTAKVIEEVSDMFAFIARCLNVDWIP
The experiment in a line: biochemical.
`CC1(C)CC(Oc2ccc3nccc(C(=O)NCC(=O)N4CSC[C@H]4C#N)c3c2)CCO1` (mixture of isomers) [Example 9, N-(2-((R)-4-Cyanothiazolidin-3-yl)-2-oxoethyl)-6-(((RS)-2,2-dimethyltetrahydro-2H-pyran-4-yl)oxy)quinoline-4-carboxamide] returned an IC50 of 870 nM. The same measure for `N#C[C@@H]1CSCN1C(=O)CNC(=O)c1ccnc2ccc(COC3CCOC3)cc12` (mixture of isomers) [Example 35, N-(2-((R)-4-Cyanothiazolidin-3-yl)-2-oxoethyl)-6-((((RS)-tetrahydrofuran-3-yl)oxy)methyl)quinoline-4-carboxamide]: 460 nM. Then `N#C[C@@H]1CSCN1C(=O)CNC(=O)c1ccnc2ccc([C@H]3CC[C@H](C#N)CC3)cc12` (single isomer, unassigned) [Example 54, 6-((1r,4R*)-4-Cyanocyclohexyl)-N-(2-((R)-4-cyanothiazolidin-3-yl)-2-oxoethyl)quinoline-4-carboxamide], with 620 nM. The same measure for `N#C[C@@H]1CSCN1C(=O)CNC(=O)c1ccnc2ccc([C@H]3CC[C@H](C#N)CC3)cc12` (single isomer, unassigned) [Example 55, 6-((1r,4R*)-4-Cyanocyclohexyl)-N-(2-((R)-4-cyanothiazolidin-3-yl)-2-oxoethyl)quinoline-4-carboxamide]: 330 nM; for `CO[C@H]1CC[C@@H](c2ccc3nccc(C(=O)NCC(=O)N4CSC[C@H]4C#N)c3c2)CC1` (single isomer, unassigned) [Example 79, N-(2-((R)-4-Cyanothiazolidin-3-yl)-2-oxoethyl)-6-((1r,4R*)-4-methoxycyclohexyl)quinoline-4-carboxamide]: 610 nM. As to `N#C[C@@H]1CSCN1C(=O)CNC(=O)c1ccnc2ccc(OCC3CC3)cc12` [Example 5, (R)—N-(2-(4-Cyanothiazolidin-3-yl)-2-oxoethyl)-6-(cyclopropyl-methoxy)quinoline-4-carboxamide], half-maximal inhibition (IC50) was put at 400 nM. Then `N#CCOc1ccc2nccc(C(=O)NCC(=O)N3CSC[C@H]3C#N)c2c1` [Example 10, (R)-6-(Cyanomethoxy)-N-(2-(4-cyanothiazolidin-3-yl)-2-oxoethyl)quinoline-4-carboxamide], with 32 nM. The same measure for `CC(F)(F)COc1ccc2nccc(C(=O)NCC(=O)N3CSC[C@H]3C#N)c2c1` [Example 11, (R)—N-(2-(4-Cyanothiazolidin-3-yl)-2-oxoethyl)-6-(2,2-difluoropropoxy)quinoline-4-carboxamide]: 290 nM; for `CCOCc1ccc2nccc(C(=O)NCC(=O)N3CSC[C@H]3C#N)c2c1` [Example 27, (R)—N-(2-(4-cyanothiazolidin-3-yl)-2-oxoethyl)-6-(ethoxymethyl)-quinoline-4-carboxamide]: 140 nM; for `N#C[C@@H]1CSCN1C(=O)CNC(=O)c1ccnc2ccc(COCC(F)F)cc12` [Example 36, (R)—N-(2-(4-Cyanothiazolidin-3-yl)-2-oxoethyl)-6-((2,2-difluoroethoxy)methyl)quinoline-4-carboxamide]: 170 nM.

Compound `N#C[C@@H]1CSCN1C(=O)CNC(=O)c1ccnc2ccc(COC3CC3)cc12` [Example 37, (R)—N-(2-(4-Cyanothiazolidin-3-yl)-2-oxoethyl)-6-(cyclopropoxy-methyl)quinoline-4-carboxamide] returned an IC50 of 170 nM. `Cc1cc(C2(c3ccc4nccc(C(=O)NCC(=O)N5CSC[C@H]5C#N)c4c3)CC2)on1` [Example 50, (R)—N-(2-(4-Cyanothiazolidin-3-yl)-2-oxoethyl)-6-(1-(3-methylisoxazol-5-yl)cyclopropyl)quinoline-4-carboxamide] came in with an IC50 of 130 nM.

Consider `N#C[C@@H]1CSCN1C(=O)CNC(=O)c1ccnc2ccc(CC3CCOCC3)cc12` [Example 56, (R)—N-(2-(4-Cyanothiazolidin-3-yl)-2-oxoethyl)-6-((tetrahydro-2H-pyran-4-yl)methyl)quinoline-4-carboxamide], for which half-maximal inhibition (IC50) was put at 500 nM.
